The values below come from ChEMBL document CHEMBL3351608, “2-Phenylindole and Arylsulphonamide: Novel Scaffolds Bactericidal against Mycobacterium tuberculosis” (ACS Med Chem Lett, 2014).

The subject of series [1] is Mycobacterium tuberculosis. In words: microbe, parasite or virus in culture. The conditions noted are these: H37Rv, 120 h.
Description: Antimicrobial activity against wild-type Mycobacterium tuberculosis H37Rv assessed as growth inhibition after 5 days by microdilution method
For series [2], the system named is Mycobacterium tuberculosis. In words: microbe, parasite or virus in culture. The conditions noted are these: 120 h.
Description: Antimicrobial activity against Mycobacterium tuberculosis assessed as growth inhibition after 5 days by microdilution method
A short description of series [3]: Lipophilicity, log D of the compound. The series is classed as physicochemical. The conditions noted are these: octanol/water.
The nature of series [4]: Aqueous solubility of the compound. The class given is physicochemical. The following applies: buffer.
Series [5] deals with Mycobacterium tuberculosis. In words: Bactericidal activity against Mycobacterium tuberculosis H37Rv after 5 days. The series is classed as functional. The following applies: 120 h.
The test system of series [6] is Mycobacterium tuberculosis. The class given is functional. The conditions noted are these: 120 h.
Series [7] concerns Mycobacterium tuberculosis. In words: Bactericidal activity against hypoxia induced nonreplicating persistent Mycobacterium tuberculosis H37Rv assessed as concentration required to reduce >/= 2 log10 CFU/ml after 7 days. The series is classed as functional.
Series [8] relates to Escherichia coli. In words: Antimicrobial activity against Escherichia coli. The series is classed as functional.
In series [9] the test system is Haemophilus influenzae. In words: Antimicrobial activity against Haemophilus influenzae. The class given is functional.
In series [10] the test system is Pseudomonas aeruginosa. In words: Antimicrobial activity against Pseudomonas aeruginosa. The series is classed as functional.
Series [11] concerns Klebsiella pneumoniae. In words: Antimicrobial activity against Klebsiella pneumoniae. The series is classed as functional.
For series [12], the system named is Staphylococcus aureus. In words: Antimicrobial activity against Staphylococcus aureus. The class given is functional.
Series [13] relates to Streptococcus pneumoniae. In words: Antimicrobial activity against Streptococcus pneumoniae. The class given is functional.
Series [14] deals with Mycobacterium tuberculosis. In words: Bactericidal activity against Mycobacterium tuberculosis H37Rv infected in human THP1 cells assessed as reduction in CFU at 1 to 4 times MIC by time-kill method. The series is classed as functional, THP-1.
Series [15] in a line: Cytotoxicity against human THP1 cells assessed as cell viability after 72 hrs by resazurin staining-based fluorimetric analysis. The conditions noted are these: THP-1 cells.
Series [16] deals with Mycolicibacterium smegmatis. In words: Inhibition of oxidative phosphorylation in Mycobacterium smegmatis membrane vesicles assessed as inhibition of NADH driven ATP synthesis by luciferin/luciferase assay. The class given is functional.
Series [17] addresses T1, Enoyl-[acyl-carrier-protein] reductase [NADH] (Mycobacterium tuberculosis, UniProt P9WGR1).
T1 sequence (P9WGR1 whole entry): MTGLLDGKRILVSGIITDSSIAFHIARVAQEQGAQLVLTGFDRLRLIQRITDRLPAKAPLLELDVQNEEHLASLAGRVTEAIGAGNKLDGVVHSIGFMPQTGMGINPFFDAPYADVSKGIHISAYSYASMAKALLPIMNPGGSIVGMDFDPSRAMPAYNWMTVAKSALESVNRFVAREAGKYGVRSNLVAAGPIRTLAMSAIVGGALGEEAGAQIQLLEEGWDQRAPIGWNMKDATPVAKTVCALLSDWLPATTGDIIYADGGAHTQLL
Description: Inhibition of Mycobacterium tuberculosis InhA using dodecyl coA as substrate by LC-MS/MS analysis

The target of series [18] is DNA gyrase subunit A/DNA gyrase subunit B (Mycobacterium tuberculosis (strain ATCC 25618 / H37Rv), UniProt P9WG45+P9WG47).
Description: Inhibition of Mycobacterium tuberculosis DNA gyrase-mediated relaxed pBR322 DNA supercoiling by gel electrophoresis

pIC50: −log10 of the molar value. Values after ≈ are worked out from the molar mass of the structure shown.

DNA gyrase subunit A/DNA gyrase subunit B, sequence (P9WG45 whole entry): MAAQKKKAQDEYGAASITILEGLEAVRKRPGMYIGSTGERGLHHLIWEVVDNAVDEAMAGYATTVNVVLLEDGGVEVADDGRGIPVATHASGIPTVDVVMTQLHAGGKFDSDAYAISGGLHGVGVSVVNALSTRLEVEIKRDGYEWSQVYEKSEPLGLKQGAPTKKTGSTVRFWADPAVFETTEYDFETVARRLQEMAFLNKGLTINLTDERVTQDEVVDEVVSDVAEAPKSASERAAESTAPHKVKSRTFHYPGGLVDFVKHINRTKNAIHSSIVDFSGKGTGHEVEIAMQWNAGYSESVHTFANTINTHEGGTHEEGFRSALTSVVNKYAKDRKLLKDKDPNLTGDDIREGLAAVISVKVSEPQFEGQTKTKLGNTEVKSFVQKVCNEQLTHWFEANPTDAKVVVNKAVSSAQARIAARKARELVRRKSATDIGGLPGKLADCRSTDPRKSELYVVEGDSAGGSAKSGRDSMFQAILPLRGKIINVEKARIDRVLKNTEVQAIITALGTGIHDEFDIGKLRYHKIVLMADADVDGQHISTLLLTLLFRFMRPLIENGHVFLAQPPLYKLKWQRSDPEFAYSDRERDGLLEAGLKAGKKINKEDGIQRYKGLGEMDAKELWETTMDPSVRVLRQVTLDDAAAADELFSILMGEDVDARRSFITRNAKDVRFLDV
DNA gyrase subunit A/DNA gyrase subunit B, sequence (P9WG47 whole entry): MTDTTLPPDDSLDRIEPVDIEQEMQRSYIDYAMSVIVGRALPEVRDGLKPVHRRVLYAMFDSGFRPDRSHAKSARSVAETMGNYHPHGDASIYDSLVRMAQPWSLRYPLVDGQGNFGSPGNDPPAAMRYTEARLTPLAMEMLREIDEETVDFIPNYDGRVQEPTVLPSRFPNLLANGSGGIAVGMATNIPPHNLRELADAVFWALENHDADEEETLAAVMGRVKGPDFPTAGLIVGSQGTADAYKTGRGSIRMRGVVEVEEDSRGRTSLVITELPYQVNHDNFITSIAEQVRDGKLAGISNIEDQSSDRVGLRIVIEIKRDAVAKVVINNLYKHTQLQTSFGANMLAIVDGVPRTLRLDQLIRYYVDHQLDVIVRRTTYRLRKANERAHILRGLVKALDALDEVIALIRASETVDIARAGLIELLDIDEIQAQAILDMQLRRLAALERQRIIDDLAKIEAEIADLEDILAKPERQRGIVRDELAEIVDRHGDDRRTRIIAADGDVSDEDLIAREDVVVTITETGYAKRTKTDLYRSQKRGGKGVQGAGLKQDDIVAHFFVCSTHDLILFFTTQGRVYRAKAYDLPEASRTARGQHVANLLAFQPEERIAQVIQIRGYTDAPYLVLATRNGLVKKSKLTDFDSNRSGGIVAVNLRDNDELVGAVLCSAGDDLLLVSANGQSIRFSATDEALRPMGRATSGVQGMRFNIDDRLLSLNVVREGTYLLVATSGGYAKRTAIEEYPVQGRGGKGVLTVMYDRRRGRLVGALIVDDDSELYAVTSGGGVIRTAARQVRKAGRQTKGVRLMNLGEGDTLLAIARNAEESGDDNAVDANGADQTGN

With `CC1COC2(CCN(c3nc(=O)c4cc(C(F)(F)F)cc([N+](=O)[O-])c4s3)CC2)O1` (stereo not drawn), the MIC in [1] and in series [2] was 0.01 µM (≈ 0.00431 µg/mL) in each case.

Take `Cc1cccc2c(CN3CCCC3)c(-c3ccccc3)[nH]c12`: the logD in series [3] was 1.8. The compound also had a solubility in series [4] of 752 µM (≈ 218 µg/mL).

In [3], `COCCN(C1CCN(Cc2c(-c3ccccc3)[nH]c3c(C)cccc23)C1)S(C)(=O)=O` (stereo not drawn) gave a logD of 3. For the same compound, the concentration in solution in series [4] (solubility) was 5.4 µM (≈ 2.38 µg/mL). The minimum bactericidal concentration (MBC) in series [5] came to 3.8 µM (≈ 1.68 µg/mL). In addition, the MIC was 0.8 µM (≈ 0.353 µg/mL) in series [6]; above 200 µM in series [8]; above 200 µM in series [9]; above 200 µM in series [10]; above 200 µM in [11]; above 200 µM in series [12]. For the same compound, the figures for the MIC in series [13], in series [1] and in series [2] were above 200 µM, 0.8 µM (≈ 0.353 µg/mL) and 0.8 µM (≈ 0.353 µg/mL), respectively. Moreover, the Activity in series [7] was determined as 3.1 µM. The “fold change (FC)” value in series [14] is 1.5. For the same compound, in series [15], the CC50 at 72 h was above 64 µM. For the same compound, the pIC50 was 4.81 in series [16], below 4.00 in series [17] and below 4.00 in series [18].

Compound `COCCN(C1CCN(Cc2c(-c3ccccc3)[nH]c3c(OC)cccc23)C1)S(C)(=O)=O` (stereo not drawn) yielded a logD in [3] of 2.8. The same compound yielded a solubility in series [4] of 103 µM (≈ 47.1 µg/mL).

Compound `O=S(=O)(NC1CCN(Cc2ccncc2)CC1)c1ccc(-n2cccn2)cc1` displayed a logD in [3] of 2.6. Also, in series [4], the concentration in solution (solubility) came to 149 µM (≈ 59.2 µg/mL). This compound also displayed a minimum bactericidal concentration (MBC) in series [5] of 50 µM (≈ 19.9 µg/mL). Further, the MIC in series [6] is 3.3 µM (≈ 1.31 µg/mL); in series [8], above 200 µM; in series [9] it was above 200 µM; in [10], above 200 µM; in series [11], above 200 µM; in series [12], above 200 µM. Besides, the figures for the MIC in series [13], in series [1] and in [2] were above 200 µM, 3.3 µM (≈ 1.31 µg/mL) and 1.6 µM (≈ 0.636 µg/mL), respectively. In addition, in series [7], the Activity came out at 25 µM. For the same compound, the 50% cytotoxic concentration (CC50) at 72 h in series [15] was above 64 µM. Also, the pIC50 is below 4.15 in series [16], below 4.00 in [17] and below 4.00 in series [18].

`Cc1cc(-n2cccn2)ccc1S(=O)(=O)NC1CCN(Cc2ccncc2)CC1` returned a log distribution coefficient (logD) in [3] of 2.3. In series [4], this compound displayed a solubility of 66 µM (≈ 27.2 µg/mL). In series [5], the minimum bactericidal concentration (MBC) turned out to be 1.6 µM (≈ 0.658 µg/mL). For the same compound, the MIC is 0.8 µM (≈ 0.329 µg/mL) in series [6]; above 200 µM in [8]; above 200 µM in series [9]; above 200 µM in series [10]; above 200 µM in [11]; above 200 µM in [12]. In addition, the MIC in series [13] is above 200 µM; in series [1], 0.8 µM (≈ 0.329 µg/mL). In addition, in [7], the Activity is above 200 µM. Besides, the “fold change (FC)” value in [14] turned out to be 1.5. In addition, the 50% cytotoxic concentration (CC50) at 72 h in series [15] was determined as 32 µM.

For the compound `O=S(=O)(NC1CCN(Cc2ccncc2)CC1)c1ccc(-n2cccn2)cn1`, the logD in series [3] was 1.7. In addition, the solubility in [4] came out at 1000 µM (≈ 398 µg/mL).

Turning to `Cc1cccc2c(CN3CCC(NS(C)(=O)=O)C3)c(-c3ccccc3)[nH]c12` (racemic), in [5], the MBC worked out at 1.6 µM (≈ 0.614 µg/mL). Further, the MIC is 1.6 µM (≈ 0.614 µg/mL) in [6]; above 200 µM in series [8]; above 200 µM in [9]; above 200 µM in [10]; above 200 µM in [11]; above 200 µM in series [12]. The results for the MIC in series [13] and in [1] were above 200 µM and 1.6 µM (≈ 0.614 µg/mL), respectively. The Activity in [7] is above 200 µM. In addition, in [15], the cytotoxic concentration (CC50) at 72 h turned out to be 32 µM.

As to `COc1nc2ccc(Br)cc2cc1[C@@H](c1ccccc1)[C@@](O)(CCN(C)C)c1cccc2ccccc12` [BEDAQUILINE], in series [16], the pIC50 is 9.00.

In the case of `NNC(=O)c1ccncc1` [ISONIAZID], the MIC in series [1] is 0.5 µM (≈ 0.0686 µg/mL); in series [2], above 7.5 µM.

Take `CO[C@H]1/C=C/O[C@@]2(C)Oc3c(C)c(O)c4c(O)c(c(/C=N/N5CCN(C)CC5)c(O)c4c3C2=O)NC(=O)/C(C)=C\C=C\[C@H](C)[C@H](O)[C@@H](C)[C@@H](O)[C@@H](C)[C@H](OC(C)=O)[C@@H]1C` [RIFAMPIN]: the MIC in [1] and in [2] was 0.003 µM (≈ 0.00247 µg/mL) in each case.

One may read the logD as lipophilicity at a set pH, counting ionised and neutral species. As a reminder, the solubility is the concentration that dissolves in the medium under given conditions. The MBC is the lowest tested concentration that kills the bacteria rather than only halting them. High values mean weaker bactericidal potency, low ones greater bactericidal potency. In general, CC50 refers to the concentration at which the toxic effect on the cells reaches its halfway point. A word on the pIC50: it is −log10 of the IC50, conventionally taken in molar units.
